Assay results: ChEMBL document CHEMBL1201862, “PubChem BioAssay data set” (2004)
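Following 48 hours of exposure in 96-well plates, responses at five concentrations were used to interpolate endpoints linearly. Here, GI50 denotes the concentration required for 50% inhibition of growth.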 Active and inactive are the calls of the source. No stated cut-off is given here; in the data, active = GI50 up to about 1.1 µM and inactive = higher.

Experiments:
Experiment in all cases: NCI tumour cell line growth inhibition, 48 h
[1] = test system: A498
[2] = test system: BT-549
[3] = test system: CCRF-CEM
[4] = test system: COLO 205
[5] = test system: DU-145
[6] = test system: HCC 2998
[7] = test system: LOX IMVI
[8] = test system: MDA-MB-435
[9] = test system: MOLT-4
[10] = test system: NCI-H460
[11] = test system: OVCAR-4
[12] = test system: RPMI-8226
[13] = test system: SF-295
[14] = test system: SK-MEL-5
[15] = test system: SK-OV-3
[16] = test system: T47D
[17] = test system: SF-539

Structure (SMILES) | GI50 [1] | GI50 [2] | GI50 [3] | GI50 [4] | GI50 [5] | GI50 [6] | GI50 [7] | GI50 [8] | GI50 [9] | GI50 [10] | GI50 [11] | GI50 [12] | GI50 [13] | GI50 [14] | GI50 [15] | GI50 [16] | GI50 [17]
O=C1C(c2c(O)[nH]c3ccc(S(=O)(=O)O)cc23)=Nc2ccccc21 | > 100 µM (inactive) | > 100 µM (inactive) | > 100 µM (inactive) | > 100 µM (inactive) | > 100 µM (inactive) | > 100 µM (inactive) | > 100 µM (inactive) | > 100 µM (inactive) | > 100 µM (inactive) | > 100 µM (inactive) | 94.4 µM (inactive) | > 100 µM (inactive) | > 100 µM (inactive) | > 100 µM (inactive) | > 100 µM (inactive) | 72.1 µM (inactive) | –
C[As+](C)(c1ccc(Br)c([N+](=O)[O-])c1)c1ccc(Br)c([N+](=O)[O-])c1 | > 100 µM (inactive) | > 100 µM (inactive) | – | > 100 µM (inactive) | > 100 µM (inactive) | > 100 µM (inactive) | > 100 µM (inactive) | > 100 µM (inactive) | > 100 µM (inactive) | > 100 µM (inactive) | > 100 µM (inactive) | 44.7 µM (inactive) | > 100 µM (inactive) | 9.12 µM (inactive) | > 100 µM (inactive) | > 100 µM (inactive) | > 100 µM (inactive)
CCCCCCCCCCCCCCC(O)C[N+](C)(CCO)CCO (stereo unspecified) | 4.99 µM (inactive) | 3.05 µM (inactive) | 1.57 µM (inactive) | 1.72 µM (inactive) | 11 µM (inactive) | 1.73 µM (inactive) | 1.48 µM (inactive) | 6.12 µM (inactive) | 1.91 µM (inactive) | 2.56 µM (inactive) | 3.73 µM (inactive) | 1.92 µM (inactive) | 2.25 µM (inactive) | 4.06 µM (inactive) | 12.9 µM (inactive) | 8.07 µM (inactive) | 2.4 µM (inactive)
CC(=O)Nc1ccc2c(c1)/C(=C\c1ccc([N+](C)(C)C)cc1)c1ccccc1-2 | 42.1 µM (inactive) | 34.3 µM (inactive) | 22.5 µM (inactive) | 18 µM (inactive) | 89.3 µM (inactive) | 55.6 µM (inactive) | 47.9 µM (inactive) | 36.2 µM (inactive) | 32.9 µM (inactive) | 34.9 µM (inactive) | 35.3 µM (inactive) | 24.9 µM (inactive) | 46.1 µM (inactive) | 24.2 µM (inactive) | 61.7 µM (inactive) | 23.2 µM (inactive) | –
Cc1nc2c(cc1OCc1ccccc1)C(=O)C1=C(C2=O)C2OC(=O)CC2OC1(C)C (stereo unspecified) | 1.6 µM (inactive) | 0.564 µM (active) | 0.17 µM (active) | 0.326 µM (active) | 1.71 µM (inactive) | 0.579 µM (active) | 0.215 µM (active) | 0.55 µM (active) | 0.358 µM (active) | 1.32 µM (inactive) | 0.498 µM (active) | 0.368 µM (active) | – | 1.18 µM (inactive) | – | 0.288 µM (active) | 0.728 µM (active)
C[C@H](N)C(=O)Nc1ccc(-c2nc3ccccc3s2)cc1 | 30.1 µM (inactive) | > 100 µM (inactive) | 10.2 µM (inactive) | 18.6 µM (inactive) | 18.4 µM (inactive) | 20.9 µM (inactive) | 19.1 µM (inactive) | 16.9 µM (inactive) | 16.3 µM (inactive) | 16.9 µM (inactive) | 16.4 µM (inactive) | – | 18.7 µM (inactive) | 20.1 µM (inactive) | 22.5 µM (inactive) | 17.5 µM (inactive) | 36.9 µM (inactive)
NNC(=O)C(O)C(O)C(O)CO (stereo unspecified) | > 100 µM (inactive) | > 100 µM (inactive) | > 100 µM (inactive) | > 100 µM (inactive) | > 100 µM (inactive) | > 100 µM (inactive) | 88.9 µM (inactive) | > 100 µM (inactive) | – | > 100 µM (inactive) | > 100 µM (inactive) | > 100 µM (inactive) | > 100 µM (inactive) | > 100 µM (inactive) | > 100 µM (inactive) | > 100 µM (inactive) | –
CCCCCCCc1ccc(-c2nnc(/N=N/c3ccc(OCCCCC)cc3)s2)s1 | > 100 µM (inactive) | > 100 µM (inactive) | > 100 µM (inactive) | > 100 µM (inactive) | > 100 µM (inactive) | > 100 µM (inactive) | – | > 100 µM (inactive) | > 100 µM (inactive) | > 100 µM (inactive) | > 100 µM (inactive) | > 100 µM (inactive) | > 100 µM (inactive) | > 100 µM (inactive) | > 100 µM (inactive) | > 100 µM (inactive) | > 100 µM (inactive)
CNc1cc2oc(=O)cc(C)c2cc1C | 43.2 µM (inactive) | 15.4 µM (inactive) | > 100 µM (inactive) | > 100 µM (inactive) | > 100 µM (inactive) | > 100 µM (inactive) | > 100 µM (inactive) | 86.3 µM (inactive) | > 100 µM (inactive) | > 100 µM (inactive) | > 100 µM (inactive) | > 100 µM (inactive) | > 100 µM (inactive) | 30.1 µM (inactive) | – | > 100 µM (inactive) | > 100 µM (inactive)
O=C1OC(c2ccccc2)=N/C1=C\c1ccc(Cl)cc1 | > 100 µM (inactive) | > 100 µM (inactive) | 61.5 µM (inactive) | > 100 µM (inactive) | > 100 µM (inactive) | > 100 µM (inactive) | > 100 µM (inactive) | > 100 µM (inactive) | > 100 µM (inactive) | > 100 µM (inactive) | > 100 µM (inactive) | > 100 µM (inactive) | > 100 µM (inactive) | > 100 µM (inactive) | > 100 µM (inactive) | > 100 µM (inactive) | –
COc1ccccc1C1=C2C(=O)N(C)C(c3ccccc3OC)=C2C(=O)N1C | 63 µM (inactive) | > 100 µM (inactive) | > 100 µM (inactive) | > 100 µM (inactive) | > 100 µM (inactive) | > 100 µM (inactive) | > 100 µM (inactive) | > 100 µM (inactive) | > 100 µM (inactive) | 84.1 µM (inactive) | 37.2 µM (inactive) | – | 51.4 µM (inactive) | > 100 µM (inactive) | 69.8 µM (inactive) | 71.3 µM (inactive) | 27.6 µM (inactive)
COc1cc(OC)cc(-n2c(N)c(-c3nc4ccccc4s3)c3ccc([N+](=O)[O-])cc3c2=O)c1 | 28.4 µM (inactive) | > 100 µM (inactive) | 69.7 µM (inactive) | 30.4 µM (inactive) | 43.8 µM (inactive) | 84.5 µM (inactive) | > 100 µM (inactive) | > 100 µM (inactive) | – | 32.7 µM (inactive) | 17 µM (inactive) | > 100 µM (inactive) | 28.5 µM (inactive) | 45.8 µM (inactive) | 79.6 µM (inactive) | 17.2 µM (inactive) | 13.4 µM (inactive)
